The text below walks through data of patent publication US7838049B2, “Extracts and compounds for inhibiting tyrosinase activity” (Taipei Medical University, priority 2009, dated 2010).

Test [1] has as its target T1, tyrosinase (Homo sapiens, UniProt P14679).
T1 construct: Lysis buffer (1% Triton X-100, 1 mM phenylmethylsulfonyl fluoride (PMSF), 1 μg/ml aprotinin, and 10 μg/ml leupeptin) was added to the resulting cells to obtain the cell proteins; host or cells: HEMn human melanocytes, passages 3 to 10
T1 sequence (P14679 19-529): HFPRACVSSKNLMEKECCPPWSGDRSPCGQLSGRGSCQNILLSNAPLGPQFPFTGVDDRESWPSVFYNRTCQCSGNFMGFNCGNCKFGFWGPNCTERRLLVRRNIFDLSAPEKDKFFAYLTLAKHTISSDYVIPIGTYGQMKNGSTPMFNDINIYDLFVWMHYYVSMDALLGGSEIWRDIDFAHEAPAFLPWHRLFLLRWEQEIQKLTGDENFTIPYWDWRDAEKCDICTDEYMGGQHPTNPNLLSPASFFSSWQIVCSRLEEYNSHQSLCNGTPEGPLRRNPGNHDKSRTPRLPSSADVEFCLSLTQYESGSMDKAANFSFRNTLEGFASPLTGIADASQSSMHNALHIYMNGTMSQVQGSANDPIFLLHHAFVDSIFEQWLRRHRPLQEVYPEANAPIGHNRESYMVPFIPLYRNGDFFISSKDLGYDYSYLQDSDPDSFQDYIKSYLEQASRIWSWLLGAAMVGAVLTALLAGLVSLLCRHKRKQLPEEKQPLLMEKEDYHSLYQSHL
The test can be described thus: Assay of tyrosinase activity in human melanocyte (HEMn) cells. The test is classed as cell-based. The following applies: for inhibitory activity on tyrosinase: HEMn cells treated 24 hours, lysate reacted with L-DOPA, OD475 vs control, FIG. 1 and FIG. 2. As to the method: Human melanocyte (HEMn) cells are cultured with medium 254 containing antibiotics and growth factors (Cascade Biologics, Inc., Portland, Oreg., USA) in an incubator with 5% CO2 for serial passage. Passages 3 to 10 of the HEMn cells were used in the experiments below.
HEMn cells were further cultured for 48 hours and then the ethyl acetate extract of the invention and the test compounds (MHL-1: 3,4-dihydroxy-5-methoxybiphenyl-2′-O-β-d-glucopyranoside and MHL-2: 3,6-dihydroxy-2,4-dimethoxy-dibenzofuran) were added. After 24 hours, the cells were washed with PBS buffer. Lysis buffer (1% Triton X-100, 1 mM phenylmethylsulfonyl fluoride (PMSF), 1 μg/ml aprotinin, and 10 μg/ml leupeptin) was added to the resulting cells to obtain the cell proteins. The cell proteins were kept at −80° C. Subsequently, the cell proteins were thawed and then centrifuged at 12,000 rpm for 5 minutes. The supernatant was taken for determination of the amount of protein by BCA protein assay. The proteins with different concentrations were added to a 96-well microplate and then PBS buffers were added. L-DOPA was added to the microplate to react with the protein at 37° C. for 1 hour. The absorbance of the solution at 475 nm wavelength was detected. Tyrosinase activity (%)=(OD475 of the sample/OD475 of control)×100.
Arbutin as positive control and 1% DMSO as blank were used in the tyrosinase activity assay stated above. […] MHL-1 and MHL-2 inhibit around 40% and 20% tyrosinase activity, respectively. The ethyl acetate extract and the compounds of the invention are effective in inhibiting tyrosinase.

The target in test [2] is T1, tyrosinase. In words: Tyrosinase oxidative activity analysis by L-Dopa staining of SDS-PAGE gels. The following applies: HEMn cells treated with 100, 80 and 60 μM of MHL-1; FIG. 3. Format: cell-based. As to the method:
The compound of the invention, MHL-1, with different concentrations was added to HEMn cells. The lysis of HEMn cells, isolation of cell proteins and BCA protein assay were performed on the supernatant obtained as stated in Example 1 so that the amount of the protein could be determined. 10% SDS-polyacrylamide gel electrophoresis (dd-H2O; 10% Acrylamide mix; 1.5M Tris-base pH8.8; 10% SDS; 10% Ammonium persulfate; TEMED) was performed on the resulting protein and the sample buffer (60 mM Tris-HCl, pH 6.8, 2% sodium dodecyl sulfate (SDS), 10% glycerol, 0.01% bromophenol blue) at the same time. The molecular weight of tyrosinase was about 72 kDa. The resulting gels were washed with 0.1 M of PBS (pH 6.8) for 30 minutes and then the protein at the position of 72 kDa reacted with 5 mM L-DOPA in 0.1 M PBS at 37° C. for 1 hour. After the reaction, Quantity One 1-D software was used to determine the amount of protein.

Consider `COc1cc(-c2ccccc2OC2OC(CO)C(O)C(O)C2O)cc(O)c1O` [MHL-1, 3,4-dihydroxy-5-methoxybiphenyl-2′-O-β-D-glucopyranoside], for which the “inhibitory activity on tyrosinase” value in test [1] is on record as “around 40%”. For the same molecule, the “tyrosinase inhibitory activity compared with arbutin (positive control)” value in test [1] (HEMn cells, FIG. 2) was “superior activity compared to arbutin”. In addition, in test [2], the “tyrosinase oxidative activity (L-DOPA staining of the 72 kDa band)” value was “the higher the concentration of MHL-1, the lower the tyrosinase oxidative activity”.

For the molecule `COc1cc2c(oc3c(O)cccc32)c(OC)c1O` [MHL-2, 3,6-dihydroxy-2,4-dimethoxy-dibenzofuran], the “inhibitory activity on tyrosinase” value in test [1] is reported as around 20%.
